Assays:
Karpas-299 cells = experiment: Karpas-299 cell proliferation assay (CellTiter-Glo); format: cell-based; settings: Homo sapiens, 72 h; Karpas-299 cell line (NPM-ALK); 3 days incubation; at least duplicate experiments; read-out: Prolif. IC50
MKN45 cells = experiment: MKN45 cell proliferation assay (CellTiter-Glo); format: cell-based; settings: Homo sapiens, MKN-45, 72 h; MKN45 cell line; 3 days incubation; at least duplicate experiments; read-out: Prolif. IC50

For `COc1ccc(F)c(Cl)c1[C@@H](C)c1c[nH]c2ncc(-c3cnn(C)c3C(N)=O)cc12` [Example 43, 4-{3-[(1S)-1-(2-Chloro-3-fluoro-6-methoxyphenyl)ethyl]-1H-pyrrolo[2,3-b]pyridin-5-yl}-1-methyl-1H-pyrazole-5-carboxamide], the IC50 (Karpas-299 cells) was > 1000 nM and the IC50 (MKN45 cells) was 200 to 1000 nM.

Work on `COc1ccc(F)c(Cl)c1[C@@H](C)c1c[nH]c2ncc(-c3cnn(C)c3CO)cc12` [Example 44, (4-{3-[(1S)-1-(2-Chloro-3-fluoro-6-methoxyphenyl)ethyl]-1H-pyrrolo[2,3-b]pyridin-5-yl}-1-methyl-1H-pyrazol-5-yl)methanol] yielded an IC50 (Karpas-299 cells) of 50 to 200 nM and an IC50 (MKN45 cells) of 50 to 200 nM.

Work on `COc1ccc(F)c(Cl)c1[C@@H](C)c1c[nH]c2ncc(-c3c(C)nn(C)c3CO)cc12` [Example 45, (4-{3-[(1S)-1-(2-Chloro-3-fluoro-6-methoxyphenyl)ethyl]-1H-pyrrolo[2,3-b]pyridin-5-yl}-1,3-dimethyl-1H-pyrazol-5-yl)methanol] yielded an IC50 (Karpas-299 cells) of 50 to 200 nM and an IC50 (MKN45 cells) of 200 to 1000 nM.

`COc1ccc(F)c(Cl)c1[C@@H](C)c1c[nH]c2ncc(-c3cn(C)nc3C#N)cc12` [Example 46, 4-{3-[(1S)-1-(2-Chloro-3-fluoro-6-methoxyphenyl)ethyl]-1H-pyrrolo[2,3-b]pyridin-5-yl}-1-methyl-1H-pyrazole-3-carbonitrile] showed an IC50 (Karpas-299 cells) of 200 to 1000 nM and an IC50 (MKN45 cells) of 50 to 200 nM.

For `CCc1nn([C@H]2CC[C@H](O)CC2)cc1-c1cnc2[nH]cc([C@H](C)c3c(OC)ccc(F)c3Cl)c2c1` [Example 47, trans-4-(4-{3-[(1S)-1-(2-Chloro-3-fluoro-6-methoxyphenyl)ethyl]-1H-pyrrolo[2,3-b]pyridin-5-yl}-3-ethyl-1H-pyrazol-1-yl)cyclohexanol], the IC50 (Karpas-299 cells) was 50 to 200 nM and the IC50 (MKN45 cells) was ≤ 50 nM.

With `CCc1c(-c2cnc3[nH]cc([C@H](C)c4c(OC)ccc(F)c4Cl)c3c2)cnn1[C@H]1CC[C@H](O)CC1` [Example 48, trans-4-(4-{3-[(1S)-1-(2-Chloro-3-fluoro-6-methoxyphenyl)ethyl]-1H-pyrrolo[2,3-b]pyridin-5-yl}-5-ethyl-1H-pyrazol-1-yl)cyclohexanol] the IC50 (Karpas-299 cells) was 50 to 200 nM and the IC50 (MKN45 cells) was ≤ 50 nM.

With `COc1ccc(F)c(Cl)c1[C@@H](C)c1c[nH]c2ncc(-c3cnn([C@H]4CC[C@H](O)CC4)c3Cl)cc12` [Example 49, trans-4-(5-Chloro-4-{3-[(1S)-1-(2-chloro-3-fluoro-6-methoxyphenyl)ethyl]-1H-pyrrolo[2,3-b]pyridin-5-yl}-1H-pyrazol-1-yl)cyclohexanol] the IC50 (Karpas-299 cells) was 50 to 200 nM and the IC50 (MKN45 cells) was ≤ 50 nM.

Compound `COc1ccc(F)c(Cl)c1[C@@H](C)c1c[nH]c2ncc(-c3cn(C)nc3CN)cc12` [Example 50, 1-(4-{3-[(1S)-1-(2-Chloro-3-fluoro-6-methoxyphenyl)ethyl]-1H-pyrrolo[2,3-b]pyridin-5-yl}-1-methyl-1H-pyrazol-3-yl)methanamine] has an IC50 (Karpas-299 cells) of 200 to 1000 nM and an IC50 (MKN45 cells) of 50 to 200 nM.

Compound `COc1ccc(F)c(Cl)c1[C@@H](C)c1c[nH]c2ncc(-c3c(CO)nn(C)c3C)cc12` [Example 51, (4-{3-[(1S)-1-(2-Chloro-3-fluoro-6-methoxyphenyl)ethyl]-1H-pyrrolo[2,3-b]pyridin-5-yl}-1,5-dimethyl-1H-pyrazol-3-yl)methanol] has an IC50 (Karpas-299 cells) of 50 to 200 nM and an IC50 (MKN45 cells) of 50 to 200 nM.

`COc1ccc(F)c(Cl)c1[C@@H](C)c1c[nH]c2ncc(-c3cnn([C@H]4CC[C@@H](O)CC4)c3C)cc12` [Example 52, cis-4-(4-{3-[(1S)-1-(2-Chloro-3-fluoro-6-methoxyphenyl)ethyl]-1H-pyrrolo[2,3-b]pyridin-5-yl}-5-methyl-1H-pyrazol-1-yl)cyclohexanol] was tested, and the IC50 (Karpas-299 cells) was 50 to 200 nM and the IC50 (MKN45 cells) was ≤ 50 nM.

For `COc1ccc(F)c(Cl)c1[C@@H](C)c1c[nH]c2ncc(-c3cnn([C@H]4CC[C@H](N(C)C)CC4)c3C)cc12` [Example 53, trans-4-(4-{3-[(1S)-1-(2-Chloro-3-fluoro-6-methoxyphenyl)ethyl]-1H-pyrrolo[2,3-b]pyridin-5-yl}-5-methyl-1H-pyrazol-1-yl)-N,N-dimethylcyclohexanamine], the IC50 (Karpas-299 cells) was ≤ 50 nM and the IC50 (MKN45 cells) was ≤ 50 nM.

For `COc1ccc(F)c(Cl)c1[C@@H](C)c1c[nH]c2ncc(-c3cnn([C@H]4CC[C@@H](N(C)C)CC4)c3C)cc12` [Example 54, cis-4-(4-{3-[(1S)-1-(2-Chloro-3-fluoro-6-methoxyphenyl)ethyl]-1H-pyrrolo[2,3-b]pyridin-5-yl}-5-methyl-1H-pyrazol-1-yl)-N,N-dimethylcyclohexanamine], the IC50 (Karpas-299 cells) was ≤ 50 nM and the IC50 (MKN45 cells) was ≤ 50 nM.

Work on `COc1ccc(F)c(Cl)c1[C@@H](C)c1c[nH]c2ncc(-c3cn(C)nc3Cl)cc12` [Example 60, 3-[(1S)-1-(2-chloro-3-fluoro-6-methoxyphenyl)ethyl]-5-(3-chloro-1-methyl-1H-pyrazol-4-yl)-1H-pyrrolo[2,3-b]pyridine] yielded an IC50 (Karpas-299 cells) of 50 to 200 nM and an IC50 (MKN45 cells) of 50 to 200 nM.

`COc1ccc(F)c(Cl)c1[C@@H](C)c1c[nH]c2ncc(-c3cn(C)nc3OC)cc12` [Example 61, 3-[(1S)-1-(2-Chloro-3-fluoro-6-methoxyphenyl)ethyl]-5-(3-methoxy-1-methyl-1H-pyrazol-4-yl)-1H-pyrrolo[2,3-b]pyridine] was tested, and the IC50 (Karpas-299 cells) was 200 to 1000 nM and the IC50 (MKN45 cells) was ≤ 50 nM.

Work on `COc1ccc(F)c(Cl)c1[C@@H](C)c1c[nH]c2ncc(-c3cnn(C)c3OC)cc12` [Example 62, 3-[(1S)-1-(2-chloro-3-fluoro-6-methoxyphenyl)ethyl]-5-(5-methoxy-1-methyl-1H-pyrazol-4-yl)-1H-pyrrolo[2,3-b]pyridine] yielded an IC50 (Karpas-299 cells) of 200 to 1000 nM and an IC50 (MKN45 cells) of 50 to 200 nM.

In the case of `COc1ccc(F)c(Cl)c1[C@@H](C)c1c[nH]c2ncc(-c3c(C)nn(C)c3Cl)cc12` [Example 63, 5-(5-Chloro-1,3-dimethyl-1H-pyrazol-4-yl)-3-[(1S)-1-(2-chloro-3-fluoro-6-methoxyphenyl)ethyl]-1H-pyrrolo[2,3-b]pyridine], the IC50 (Karpas-299 cells) is reported as 200 to 1000 nM and the IC50 (MKN45 cells) is reported as 200 to 1000 nM.

With `COc1ccc(F)c(Cl)c1[C@@H](C)c1c[nH]c2ncc(-c3cncn3C)cc12` [Example 64, 3-[(1S)-1-(2-Chloro-3-fluoro-6-methoxyphenyl)ethyl]-5-(1-methyl-1H-imidazol-5-yl)-1H-pyrrolo[2,3-b]pyridine] the IC50 (Karpas-299 cells) was 200 to 1000 nM and the IC50 (MKN45 cells) was 50 to 200 nM.

`COc1ccc(F)c(Cl)c1[C@@H](C)c1c[nH]c2ncc(-c3cnc(C)n3C)cc12` [Example 65, 3-[(1S)-1-(2-chloro-3-fluoro-6-methoxyphenyl)ethyl]-5-(1,2-dimethyl-1H-imidazol-5-yl)-1H-pyrrolo[2,3-b]pyridine] showed an IC50 (Karpas-299 cells) of 200 to 1000 nM and an IC50 (MKN45 cells) of 50 to 200 nM.

In the case of `Cc1nn(C[C@@H](O)CO)c(C)c1-c1cnc2[nH]cc([C@H](C)c3c(Cl)ccc(F)c3Cl)c2c1` [Example 66, (2R)-3-(4-{3-[(1S)-1-(2,6-Dichloro-3-fluorophenyl)ethyl]-1H-pyrrolo[2,3-b]pyridin-5-yl}-3,5-dimethyl-1H-pyrazol-1-yl)propane-1,2-diol], the IC50 (Karpas-299 cells) is reported as ≤ 50 nM and the IC50 (MKN45 cells) is reported as ≤ 50 nM.

With `Cc1c(-c2cnc3[nH]cc([C@H](C)c4c(Cl)ccc(F)c4Cl)c3c2)cnn1[C@H]1CC[C@H](O)CC1` [Example 67, trans-4-(4-{3-[(1S)-1-(2,6-Dichloro-3-fluorophenyl)ethyl]-1H-pyrrolo[2,3-b]pyridin-5-yl}-5-methyl-1H-pyrazol-1-yl)cyclohexanol] the IC50 (Karpas-299 cells) was 50 to 200 nM and the IC50 (MKN45 cells) was ≤ 50 nM.
